Where two headings read alike, the source gives them in different places.
How the values were obtained:
[1] = biological target: T1, human recombinant Cathepsin L protease (Homo sapiens, UniProt P07711); assay: FRET assay of Cathepsin L protease inhibition (SensoLyte 520 kit); format: biochemical; conditions: for inhibition at 10 µg/mL: read-out: CatL PR Inhibition (%) ± SD at 0.01 (mg/mL)
T1 construct: purchased AnaSpec Inc. SensoLyte 520 Cathepsin L Protease Assay Kit, Lot#: AS72218-1010
Procedure: (§1) Enzyme activities of HIV-1, Cathepsin L, and renin proteases were determined by a FRET assay, following the manufacturer’s protocol. Briefly, the HIV-1 PR activity was assayed using 384-well microplates with a well volume of 120 μL (Corning Incorporated, Corning, NY, USA). Then, 8 μL of recombinant HIV-1 protease (wild type, NCBI accessiob: NC-001802, final concentration: 0.01 mg/mL (80 ng/well), AnaSpec Inc., Fremont, San Jose, CA, USA) was mixed with 2 μL of the test compounds (0.01~1.0 mg/mL). Reactions were then initiated by adding 10 μL of the HIV protease substrate (50X dilution with assay buffer). Fluorescence was measured using a EX/Em = 490/520 nm filter module on a Synergy II microplate reader. To evaluate the inhibitory activity of the test compounds towards Cathepsin L protease, fluorimetric SensoLyte^TM 520 Cathepsin L Protease Assay Kit (Lot#: AS72218-1010, AnaSpec Inc. San Jose, CA, USA) was used. Briefly, 2 μL test compound solutions (0.01~1.0 mg/mL) and 8 µL of human recombinant Cathepsin L protease (200× dilution with DTT-containing assay buffer, final concentration: 0.5 µg/mL) were added in the microplate wells. The microplate was pre-incubated at room temperature for 10 min. The enzymatic reaction was subsequently initiated by adding 10 μL of freshly diluted Cathepsin L substrate solution (100× dilution with assay buffer, final concentration: 0.01 mM) into each well. The microplate was gently shaken for 30 s before being incubated at 37 °C for 30 min. Fluorescence was measured at an emission of 520 nm and excitation of 490 nm. A Cathepsin L inhibitor, (100× dilution with assay buffer, final concentration: 1 µM) was used as a positive control. IC50 values of tested compounds were calculated by Microsoft Office Excel software using three different concentrations.

[2] = biological target: T2, recombinant HIV-1 protease (wild type) (Human immunodeficiency virus type 1 group M subtype B, UniProt P04585); assay: FRET assay of HIV-1 protease inhibition; format: biochemical; conditions: for inhibition at 1000 µg/mL / HIV-1 PR Inhibition (%) ± SD at 1.0 (mg/mL): 1.0 mg/mL; for inhibition at 1000 µg/mL / HIV-1 PR Inhibition (%) ± SD at 1.0 (mg/mL) / IC50 ± RSD% HIV-1 PR: n = 3; for inhibition at 1000 µg/mL: read-out: HIV-1 PR Inhibition (%) ± SD at 1.0 (mg/mL)
T2 construct: 8 μL of recombinant HIV-1 protease (wild type); purchased AnaSpec Inc
Procedure: as §1, with “Then, 8 μL of recombinant HIV-1 protease (wild type, NCBI accessiob: NC-001802, final concentration: 0.01 mg/mL (80 ng/well), AnaSpec Inc., Fremont, San Jose, CA, USA) was mixed with 2 μL of the test compounds (0.01~1.0 mg/mL).” left out, “To evaluate the inhibitory activity of the test compounds towards Cathepsin L protease, fluorimetric SensoLyte^TM 520 Cathepsin L Protease Assay Kit (Lot#: AS72218-1010, AnaSpec Inc. San Jose, CA, USA) was used.” left out

T1 sequence (P07711 114-333): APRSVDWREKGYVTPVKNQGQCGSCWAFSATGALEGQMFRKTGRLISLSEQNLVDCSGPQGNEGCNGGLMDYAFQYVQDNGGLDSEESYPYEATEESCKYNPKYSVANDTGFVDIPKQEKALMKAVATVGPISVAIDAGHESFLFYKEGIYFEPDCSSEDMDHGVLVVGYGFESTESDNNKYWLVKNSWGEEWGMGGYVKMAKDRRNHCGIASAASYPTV

HIV-1 PR Inhibition (%) ± SD at 1.0 (mg/mL) ([2]; listed as 3,4-dicaffeoylquinic acid) | Compound | inhibition at 10 µg/mL ([1]; 0.01 mg/mL, n = 3) [%] | inhibition at 1000 µg/mL [2] [%] | inhibition of CatL PR (in words) [1] | inhibition at 10 µg/mL [1] [%] | IC50 [2] [µM] | HIV-1 PR Inhibition (%) ± SD at 1.0 (mg/mL) [2] [%] | IC50 ± RSD% HIV-1 PR [2] [%]
– | C[N+](C)(C)CC(=O)O [Compound 1, Betaine] | -15.5 ± 5.76 | 8.95 ± 4.61 | – | – | – | – | –
– | O=C(O)[C@]1(O)C[C@@H](O)[C@@H](O)[C@H](O)C1 [Compound 2, D-(-)-Quinic acid] | – | -20.1 ± 2.61 | no inhibition | -0.32 ± 8.61 | – | – | –
– | COc1ccc(C(C)=O)c(O)c1 [Compound 3, Paeonol] | -15 ± 0.56 | -12.6 ± 0.26 | – | – | – | – | –
– | O=C(O)c1ccc(O)c(O)c1 [Compound 4, Protocatechuic acid] | – | 47.9 ± 1.82 | – | 42.1 ± 2.25 | – | – | –
– | O=C(/C=C/c1ccc(O)c(O)c1)O[C@@H]1C[C@](O)(C(=O)O)C[C@@H](O)[C@H]1O [Compound 5, Chlorogenic acid] | 40.8 ± 2.54 | – | – | – | – | – | –
– | O=c1ccc2ccc(O)cc2o1 [Compound 6, 7-Hydroxycoumarine] | 22.6 ± 0.53 | 28.9 ± 4.41 | – | – | – | – | –
– | O=C(O)/C=C/c1ccc(O)c(O)c1 [Compound 7, Caffeic acid] | 32.1 ± 1.68 | > 50 | – | – | 2660 | 65.9 ± 0.00 | 0.48 ± 0.124
– | COc1cc2ccc(=O)oc2c(O)c1O [Compound 8, Fraxetin] | 15 ± 5.25 | 24.1 ± 6.7 | – | – | – | – | –
– | C[C@@H]1O[C@@H](O[C@H]2C(=O)c3c(O)cc(O)cc3O[C@@H]2c2ccc(O)c(O)c2)[C@H](O)[C@H](O)[C@H]1O [Compound 9, Astilbin] | -24.7 ± 8.14 | > 50 | – | – | – | 68.4 ± 5.45 | 0.54 ± 4.34
– | COc1cc2ccc(=O)oc2c(OC)c1O [Compound 10, Isofraxidin] | 27 ± 2.37 | -2.09 ± 8.57 | – | – | – | – | –
more than 50% | O=C(C=Cc1ccc(O)c(O)c1)OC1CC(O)(C(=O)O)CC(O)C1OC(=O)C=Cc1ccc(O)c(O)c1 (stereo not shown) [Compound 11, 3,4-Dicaffeoylquinic acid] | -31.3 ± 6.24 | – | no inhibition | – | 252 | 86.1 ± 3.92 | 0.13 ± 2.84
– | O=C(/C=C/c1ccc(O)c(O)c1)O[C@H](Cc1ccc(O)c(O)c1)C(=O)O [Compound 12, Rosmarinic acid] | 19.2 ± 1.7 | – | – | – | – | – | –
– | COc1cc(O)cc2c1C(=O)C[C@@H](c1ccccc1)O2 [Compound 13, Alpinetin] | 11.9 ± 8.99 | > 50 | – | – | – | 62.3 ± 0.96 | 0.62 ± 3.44
– | C[C@@H]1CC[C@H]2[C@@H](C)C(=O)O[C@@H]3O[C@@]4(C)CC[C@@H]1[C@]32OO4 [Compound 14, Artemisinin] | -1.1 ± 0.52 | > 50 | – | – | – | 50.8 ± 0.58 | 0.95 ± 2.77

Reference: paper PMC9457736, “Dual Inhibition of HIV-1 and Cathepsin L Proteases by Sarcandra glabra” (Molecules, 2022)
